Results from patent publication US11419869B2, “Dosage forms and regimens for amino acid compounds” (Pliant Therapeutics, Inc., priority 2019, dated 2022).

Legend:
[1] = tested on: normal bronchial epithelial cell adhesion to LAP; experiment: normal bronchial epithelial cell adhesion to LAP (FIG. 3A); type: cell-based
[2] = tested on: normal (healthy) human bronchial epithelial cells; experiment: LAP adhesion binding assay, normal human bronchial epithelial cells; type: cell-based; conditions: cell index (electrical impedance), FIG. 3A
Experimental: Two latency associated peptide (LAP) adhesion binding assays were devised using primary human lung cells, including normal (healthy) human bronchial epithelial cells and human lung fibroblasts (healthy and IPF).
Human bronchial epithelial cells are known to express αvβ6 integrin in culture. Human bronchial epithelial cells were prepared for the assay by dissociation with trypsin/EDTA and were then seeded at 20,000 cells per well on 96 well plates (ACEA Bioscience E-plate View, Acea Biosciences; San Diego, Calif.) previously coated with 5 μg/ml of recombinant human LAP (R&D Systems; Minneapolis, Minn.) and blocked with 4% bovine serum albumin. Cell index (electrical impedance) was measured to assess cell attachment/spreading every 3 minutes for 24 hours at 37° C./5% CO2 using the xCELLigence RTCA MP Instrument (Acea Biosciences; San Diego, Calif.).

Mice (C57BL/6) = experiment: Murine bleomycin model (Example B7); type: in vivo
Experimental: Mice (C57BL/6) were divided into healthy (n=15), vehicle-treated (n=15), and test article-treated (n=15 per dose) groups. Mice in the vehicle and test article-treated groups were administered 3 U/kg of bleomycin (Teva Pharmaceuticals; North Wales, Pa.) via oropharyngeal aspiration while under anesthesia on day 0. Healthy animals were administered water in a similar fashion. Starting on day 7, mice in the control group were administered PBS vehicle, 130 μL, by oral gavage, BID for 14 days. Also starting on day 7, mice in the test group were administered compound 5 in PBS by oral gavage, BID for 14 days, at relative dosages of 1×, 2.5× and 5×. […] From day 14 through day 21, 9 of the 15 mice were administered ^2H2O for labeling. All mice were sacrificed on day 21 and tissues were collected. Samples were prepared for analysis either directly from lung tissue, or by bronchoalveolar lavage, which washes out the bronchiolar and alveolar space with saline to produce a bronchoalveolar lavage fluid (BALF) in which 80-90% of cells are alveolar macrophages.
FIG. 4C is a graph showing that compared to the healthy mice, lung tissue in the vehicle-treated mice experienced a substantial increase in SMAD3 phosphorylation, which is a measure of TGF-β signaling-related kinase activity. […] FIG. 4D is a graph showing that compared to the healthy mice, lung tissue in the vehicle-treated mice experienced a substantial accumulation of new collagen as evidenced by the percentage of lung collagen containing ^2H-labeled hydroxyproline.
FIGS. 4F, 4G, and 4H show high resolution second harmonic generation images of fibrillar collagen (collagen type I and III) taken from formalin-fixed paraffin embedded lung tissue sections from a healthy mouse lung (4F), a vehicle-treated mouse lung (4G) and a test-article treated mouse lung (4H; 500 mg/kg BID). Color scale is indicative of collagen fiber density (red=most dense; blue=least dense).
FIG. 4I is a graph showing the percent total collagen area in the second harmonic generation mouse lung images. Large structural areas of collagen found similarly in healthy and fibrotic tissues (dense collagen fibers surrounding airways were excluded from this analysis to focus on interstitial fibrotic collagen). […] The 1×, 2.5×, and 5× dosages were at the same absolute values in mg/kg as in Example B7.
The data for FIGS. 4J and 4K, was obtained 14 days after bleomycin challenge in mice were treated with compound 5 at 2.5× dose (PO, BID for 1.5 days).

lung Col1a1 expression = experiment: Precision cut lung slices, mice under chronic bleomycin exposure (Example B9); type: cell-based; conditions: 7 days culture, normalized to DMSO, FIG. 5B
Experimental: Mice (C57BL/6) were administered 3 U/kg of bleomycin (Teva Pharmaceuticals; North Wales, Pa.) on Day 0 and 1 U/kg of bleomycin on days 14, 28, 42 and 56 via oropharyngeal aspiration while under anesthesia. At day 70, 14 days after the final bleomycin insult, precision cut lung slices were obtained. Following euthanization, 2% low gelling temp agarose was injected into the mouse lungs via the trachea. […] The lobes were then subjected to precision slicing to obtain samples for culture using a microtome (Compresstome VF-300-0Z, Precisionary; Greenville, N.C.). Individual slices were distributed in a multiwell culture plate and cultured for 7 days under control (DMSO) and test compound conditions. The viability of the slices over the course of culturing was confirmed by WST-1 assay of mitochondrial activity.
During the culture period, slices in the control group were treated with DMSO and slices in the test group were treated with a DMSO solution of one of: the selective antibody αvβ6 inhibitor 3G9; the αvβ1-selective small molecule inhibitor; a combination of the selective antibody αvβ6 inhibitor 3G9 and the αvβ1-selective small molecule inhibitor; compound 5; and the small molecule ALK5 inhibitor. The selective αvβ1 and αvβ6 integrin inhibitors were analyzed at ≥their respective IC90 concentrations for inhibition of TGF-beta activation. […]

[3] = SAD and MAD first-in-human pharmacokinetic studies (Example B12); type: in vivo
Experimental: Healthy human subjects (N=85) were selected for single ascending dose (SAD) and multiple ascending dose (MAD) first-in-human studies. A solution for oral administration was prepared, containing 10 mg/mL of compound 5 in a 50:50 mixture of ORA-SWEET® SF (PERRIGO®, Allegan, Mich.) and sterile water for irrigation. Sufficient solution was administered orally to the subjects to provide between 15 mg/dose and 75 mg/dose of compound 5 in the SAD study and between 10 mg/dose and 40 mg/dose of compound 5 in the MAD study. Concentrations of compound 5 were measured in the subjects by obtaining a sample of plasma from each subject at desired intervals, and subjecting the plasma to liquid chromatography-mass spectrometry-mass spectrometry (LC-MS/MS), with quantification using a calibration curve determined from a range of solutions at standardized concentrations. The lower limit of quantitation (LLOQ) of the assay was 1 ng/mL and the calibration curve range was 1 to 500 ng/mL.

COCCN(CCCCc1ccc2c(n1)NCCC2)CC[C@H](Nc1ncnc2ccccc12)C(=O)O [Compound 5, (S)-4-((2-methoxyethyl) (4-(5,6,7,8-tetrahydro-1,8-naphthyridin-2-yl)butyl)amino)-2-(quinazolin-4-ylamino) butanoic acid]
normal bronchial epithelial cell adhesion to LAP [1]: substantially inhibited
normal bronchial epithelial cell adhesion to LAP [2]: substantially inhibited
pSMAD3 levels in lung and BALF cells vs. plasma drug exposure (Mice (C57BL/6); 14 days after bleomycin, […] dose PO BID for 1.5 days, FIGS. 4J, 4K): close inverse relationship
percent total collagen area in second harmonic generation lung images (Mice (C57BL/6); bleomycin mice, 1× (p<0.05), […] (p<0.01), 5× (p<0.0001 vs vehicle), FIG. 4I): substantial, statistically significant dose-dependent reduction
accumulated new collagen (percentage of lung collagen containing 2H-labeled hydroxyproline) (Mice (C57BL/6); bleomycin mice, 1× and 5× (p<0.01 vs vehicle), FIG. 4D): dose-dependent reduction
total pulmonary collagen, as measured by μg of hydroxyproline (Mice (C57BL/6); bleomycin mice, 1×, […], 5× (p<0.05 vs vehicle), FIG. 4E): reduction in total pulmonary collagen
SMAD3 phosphorylation in lung tissue (Mice (C57BL/6); bleomycin mice, oral gavage BID 14 days at 1×, […], 5×, vs vehicle, FIG. 4C): substantial, statistically significant dose-dependent reductions
pSMAD3 levels in the lung (Mice (C57BL/6); bleomycin mice, time- and dose-dependent inhibition): approximately 50 % of the untreated levels
lung Col1a1 expression (lung Col1a1 expression): decreased lung Col1a1 expression substantially
oral bioavailability and pharmacokinetics ([3]; healthy subjects): good oral bioavailability and pharmacokinetics
half-life ([3]; plasma, healthy human subjects, oral solution, SAD 15-75 mg, MAD 10-40 mg, read-out: calculated half life): 18 to 20 h
